{
  "source": "ChEMBL document CHEMBL3351358",
  "about": "“LPM7 Inhibitors May Potentially Treat Autoimmune Diseases” (ACS Med Chem Lett, 2014)",
  "data": [
    {"test": "Inhibition of LPM7 beta 1c subunit in human Ramos cells using rh110-(Ile)2 substrate by fluorogenic assay", "format": "cell-based", "units": {"IC50": "nM"}, "values": [
      {"smiles": "COc1ccc(C[C@H](NC(=O)[C@H](C)NC(=O)C2Cc3ccccc3C2)C(=O)N[C@@H](Cc2ccccc2)C(=O)C(=O)NCc2ccccc2)cc1", "IC50": 20000},
      {"smiles": "C[C@H](NC(=O)OCc1ccccc1)C(=O)N[C@@H](CC(F)(F)F)C(=O)N[C@@H](Cc1ccccc1)C(=O)C(=O)NCc1ccccc1", "IC50": 20000},
      {"smiles": "CCCC[C@H](NC(=O)[C@H](Cc1c[nH]c2ccccc12)NC(=O)[C@H](C)NC(=O)C1=C(C)c2ccccc2C1)C(=O)C(=O)NCc1ccccc1", "IC50": 3340},
      {"smiles": "C[C@H](NC(=O)C1Cc2ccccc2C1)C(=O)N[C@@H](CCc1ccccc1)C(=O)N[C@@H](Cc1ccccc1)C(=O)C(=O)NCc1ccccc1", "IC50": 18100}
    ]},
    {"test": "Inhibition of LPM7 in CpG type A-stimulated human PBMCs by CXCL10/IP10 detection based PBMC IP-10 assay", "units": {"EC50": "nM"}, "values": [
      {"smiles": "COc1ccc(C[C@H](NC(=O)[C@H](C)NC(=O)C2Cc3ccccc3C2)C(=O)N[C@@H](Cc2ccccc2)C(=O)C(=O)NCc2ccccc2)cc1", "EC50": 695},
      {"smiles": "C[C@H](NC(=O)OCc1ccccc1)C(=O)N[C@@H](CC(F)(F)F)C(=O)N[C@@H](Cc1ccccc1)C(=O)C(=O)NCc1ccccc1", "EC50": 5030},
      {"smiles": "CCCC[C@H](NC(=O)[C@H](Cc1c[nH]c2ccccc12)NC(=O)[C@H](C)NC(=O)C1=C(C)c2ccccc2C1)C(=O)C(=O)NCc1ccccc1", "EC50": 1220},
      {"smiles": "C[C@H](NC(=O)C1Cc2ccccc2C1)C(=O)N[C@@H](CCc1ccccc1)C(=O)N[C@@H](Cc1ccccc1)C(=O)C(=O)NCc1ccccc1", "EC50": 379}
    ]},
    {"test": "Inhibition of LPM7 beta 1i subunit in human Ramos cells using rh110-(pal)2 substrate by fluorogenic assay", "format": "cell-based", "units": {"IC50": "nM"}, "values": [
      {"smiles": "COc1ccc(C[C@H](NC(=O)[C@H](C)NC(=O)C2Cc3ccccc3C2)C(=O)N[C@@H](Cc2ccccc2)C(=O)C(=O)NCc2ccccc2)cc1", "IC50": 234},
      {"smiles": "C[C@H](NC(=O)OCc1ccccc1)C(=O)N[C@@H](CC(F)(F)F)C(=O)N[C@@H](Cc1ccccc1)C(=O)C(=O)NCc1ccccc1", "IC50": 2730},
      {"smiles": "CCCC[C@H](NC(=O)[C@H](Cc1c[nH]c2ccccc12)NC(=O)[C@H](C)NC(=O)C1=C(C)c2ccccc2C1)C(=O)C(=O)NCc1ccccc1", "IC50": 142},
      {"smiles": "C[C@H](NC(=O)C1Cc2ccccc2C1)C(=O)N[C@@H](CCc1ccccc1)C(=O)N[C@@H](Cc1ccccc1)C(=O)C(=O)NCc1ccccc1", "IC50": 968}
    ]},
    {"test": "Inhibition of LPM7 beta 5i subunit in human Ramos cells using ac-(anw)2-r110 substrate by fluorogenic assay", "format": "cell-based", "units": {"IC50": "nM"}, "values": [
      {"smiles": "COc1ccc(C[C@H](NC(=O)[C@H](C)NC(=O)C2Cc3ccccc3C2)C(=O)N[C@@H](Cc2ccccc2)C(=O)C(=O)NCc2ccccc2)cc1", "IC50": 3},
      {"smiles": "C[C@H](NC(=O)OCc1ccccc1)C(=O)N[C@@H](CC(F)(F)F)C(=O)N[C@@H](Cc1ccccc1)C(=O)C(=O)NCc1ccccc1", "IC50": 524},
      {"smiles": "CCCC[C@H](NC(=O)[C@H](Cc1c[nH]c2ccccc12)NC(=O)[C@H](C)NC(=O)C1=C(C)c2ccccc2C1)C(=O)C(=O)NCc1ccccc1", "IC50": 18},
      {"smiles": "C[C@H](NC(=O)C1Cc2ccccc2C1)C(=O)N[C@@H](CCc1ccccc1)C(=O)N[C@@H](Cc1ccccc1)C(=O)C(=O)NCc1ccccc1", "IC50": 4}
    ]},
    {"test": "Inhibition of LPM7 beta 5c subunit in human Ramos cells using rh110-(wla)2 substrate by fluorogenic assay", "format": "cell-based", "units": {"IC50": "nM"}, "values": [
      {"smiles": "COc1ccc(C[C@H](NC(=O)[C@H](C)NC(=O)C2Cc3ccccc3C2)C(=O)N[C@@H](Cc2ccccc2)C(=O)C(=O)NCc2ccccc2)cc1", "IC50": 55},
      {"smiles": "C[C@H](NC(=O)OCc1ccccc1)C(=O)N[C@@H](CC(F)(F)F)C(=O)N[C@@H](Cc1ccccc1)C(=O)C(=O)NCc1ccccc1", "IC50": 6160},
      {"smiles": "CCCC[C@H](NC(=O)[C@H](Cc1c[nH]c2ccccc12)NC(=O)[C@H](C)NC(=O)C1=C(C)c2ccccc2C1)C(=O)C(=O)NCc1ccccc1", "IC50": 560},
      {"smiles": "C[C@H](NC(=O)C1Cc2ccccc2C1)C(=O)N[C@@H](CCc1ccccc1)C(=O)N[C@@H](Cc1ccccc1)C(=O)C(=O)NCc1ccccc1", "IC50": 14}
    ]}
  ]
}
